Source: publication PMC10981997, “PEDF peptide plus hyaluronic acid stimulates cartilage regeneration in osteoarthritis via STAT3-mediated chondrogenesis” (Bone & Joint Research, 2024)

How the values were obtained:
[1] = test system: articular cartilage (AC); assay: In vivo BrdU labelling and immunostaining of chondrogenic markers in damaged AC; set-up: species or system rat; conditions: inhibitor 1 mM in 25 µl 5% HA intra-articular 60 min before 29-mer/HA at days 8 and 12
Protocol: Rats were anaesthetized by an intraperitoneal injection of xylazine (10 mg/kg) and then the right knees were injected with MIA (1 mg dissolved in 25 µl of sterile saline), using a 27-gauge needle through the patellar ligament of the knees.[18],[19] The left knee joints (control) were injected with saline. To prepare the 29-mer/HA, the 29-mer was dissolved in dimethylsulfoxide (DMSO) to make a 10 mM stock solution. Equal volumes of DMSO and 29-mer (0.5 µl) were dissolved in HA. At days 8 and 12 after MIA injection, the right knees (n = 6 per group) were randomly injected by: 1) 29-mer/25 µl of 5% HA (final concentration of 29-mer at 0.2 mM); 2) DMSO vehicle/5% HA; 3) control peptide/5% HA; 4) 5% HA alone; and 5) 29-mer/25 µl of phosphate-buffered saline (PBS; final concentration of 29-mer at 0.2 mM). […]
BrdU was reconstituted in DMSO as stock (80 mM). […] Deparaffinized sections were treated with 1N HCl at RT for 1 h, and DNA synthesis was assessed by anti-BrdU antibody. […] Images were captured using a Zeiss epifluorescence microscope with a CCD camera (Zeiss, Germany), and blinded quantification was performed in triplicate by manually counting within each section. […]

[2] = test system: BM-MSCs; assay: BrdU incorporation (proliferation) of BM-MSCs in expansion medium; format: cell-based, rat; conditions: pretreatment before 29-mer 10 μM, p < 0.001 vs 29-mer
Description: Sprague-Dawley rats were anaesthetized and their femora were aseptically harvested, washed in a mixture of PBS and 1% penicillin/streptomycin for five minutes, dissected of all soft-tissue, transected at their epiphysis, and their marrow cavity rinsed repeatedly with a mixture of heparin (AGGLUTEX INJ 5,000 U/ml; working conc. 100 U/ml) and Dulbecco’s Modified Eagle Medium (DMEM; Gibco, Thermo Fisher Scientific). The harvested cells were collected, dispersed by pipetting, and centrifuged at 1,000× g for five minutes at RT. Cell pellets were resuspended with DMEM and then the cell suspension was transferred to a 15 ml centrifuge tube containing 5 ml of Percoll (1.073 g/ml; MilliporeSigma). After centrifugation at 1,500× g for 30 minutes, the mononuclear cells in the middle layer were obtained, washed three times with PBS, and suspended in expansion medium (low-glucose DMEM with 10% heat-inactivated FBS, 1% penicillin/streptomycin). […] BrdU immunostaining of BM-MSCs was performed as in Ho et al’s[14] study.
BM-MSCs were expanded for seven days in culture and then exposed to the 29-mer (10 μM) for 24 hours. Cell proliferation was detected by BrdU pulse-labelling for four hours and analyzed by BrdU immunostaining (red colour; Figure 1a).

SMILES: CN(C)C(=O)Nc1cccc(-c2ccc(N(C)C)cc2)c1 [atglistatin, Atglistatin]
- effect of inhibitor on 29-mer/HA-induced BrdU-labelled chondrocytes [1]: blocked
- effect of inhibitor pretreatment on the 29-mer-induced BrdU+ levels [2]: significantly suppressed

SMILES: C[C@H]1COC2=C1C(=O)C(=O)c1c2ccc2c1CCCC2(C)C [CPT, cryptotanshinone]
- effect of inhibitor on 29-mer/HA-induced BrdU-labelled chondrocytes [1]: blocked
- effect of inhibitor pretreatment on the 29-mer-induced BrdU+ levels [2]: significantly suppressed
